From ChEMBL document CHEMBL4043215, “Synergistic antiproliferative effect of chemo-phototherapy: Synthesis and photodynamic activity evaluation of novel Chlorin e6-artesunate conjugates as antiproliferative agents” (Bioorg Med Chem Lett, 2017)
Calls of active or inactive are those of the source. The calls are words filed in the database; no cut-off is given here.

Key:
[1] = Dark toxicity against human HepG2 cells assessed as reduction in cell viability incubated overnight by MTT assay; type: cell-based
[2] = Drug uptake in human HepG2 cells at 30 uM measured up to 10 hrs by fluorescence assay; type: ADME, cell-based; conditions: hepg2, 10 h
HepG2 [3] = experiment: Phototoxicity against human HepG2 cells assessed as reduction in cell viability preincubated overnight followed by irradiation with LED light at 1.7 J/cm'2 for 10 mins measured post overnight incubation by MTT assay; type: functional, cell-based; conditions: HepG2, light or radiation study
[4] = Induction of singlet oxygen production in Tris-Hcl buffer after irradiation with LED light at 1.7 J/cm'2 at 100 uM at pH 7.4 by ATTA-Eu3+ probe based fluorescence microscopy
HepG2 [5] = experiment: Induction of intracellular ROS production in human HepG2 cells at 30 uM incubated for 10 hrs followed by DCF-DA addition for 20 mins in dark and irradiated with LED light at 1.7 J/cm'2 by fluorescence assay; type: functional, cell-based
HepG2 [6] = experiment: Phototoxicity against human HepG2 cells assessed as reduction in cell viability up to 100 uM irradiated with LED light at 1.7 J/cm'2 measured after 12 hrs by MTT assay; type: functional, cell-based

C=Cc1c(C)c2cc3nc(c(CC(=O)O)c4[nH]c(cc5nc(cc1[nH]2)C(C)=C5CC)c(C)c4C(=O)O)[C@@H](CCC(=O)NCCNC(=O)CCC(=O)O[C@@H]1O[C@@H]2O[C@@]4(C)CC[C@H]5[C@H](C)CC[C@@H]([C@H]1C)[C@@]25OO4)[C@@H]3C
IC50 [1]: 29.1 µM | Drug uptake [2]: Active | IC50 (HepG2 [3]): 1.5 µM | Activity [4]: Active | Activity (HepG2 [5]): Active | Activity (HepG2 [6]): Active

C=Cc1c(C)c2cc3nc(c(CC(=O)NCCNC(=O)CCC(=O)O[C@@H]4O[C@@H]5O[C@@]6(C)CC[C@H]7[C@H](C)CC[C@@H]([C@H]4C)[C@@]57OO6)c4[nH]c(cc5nc(cc1[nH]2)C(C)=C5CC)c(C)c4C(=O)O)[C@@H](CCC(=O)O)[C@@H]3C
IC50 [1]: 57 µM | Drug uptake [2]: Active | IC50 (HepG2 [3]): 2.4 µM | Activity [4]: Active | Activity (HepG2 [5]): Active | Activity (HepG2 [6]): Active

C=Cc1c(C)c2cc3nc(c(CC(=O)NCCNC(=O)CCC(=O)O[C@@H]4O[C@@H]5O[C@@]6(C)CC[C@H]7[C@H](C)CC[C@@H]([C@H]4C)[C@@]57OO6)c4[nH]c(cc5nc(cc1[nH]2)C(C)=C5CC)c(C)c4C(=O)NCCNC(=O)CCC(=O)O[C@@H]1O[C@@H]2O[C@@]4(C)CC[C@H]5[C@H](C)CC[C@@H]([C@H]1C)[C@@]25OO4)[C@@H](CCC(=O)NCCNC(=O)CCC(=O)O[C@@H]1O[C@@H]2O[C@@]4(C)CC[C@H]5[C@H](C)CC[C@@H]([C@H]1C)[C@@]25OO4)[C@@H]3C
IC50 [1]: 12.9 µM | Drug uptake [2]: Active | IC50 (HepG2 [3]): 0.8 µM | Activity [4]: inactive | Activity (HepG2 [5]): Active | Activity (HepG2 [6]): Active

C=Cc1c(C)c2cc3nc(c(CC(=O)O)c4[nH]c(cc5nc(cc1[nH]2)C(C)=C5CC)c(C)c4C(=O)NCCNC(=O)CCC(=O)O[C@@H]1O[C@@H]2O[C@@]4(C)CC[C@H]5[C@H](C)CC[C@@H]([C@H]1C)[C@@]25OO4)[C@@H](CCC(=O)O)[C@@H]3C
IC50 [1]: 36.6 µM | Drug uptake [2]: Active | IC50 (HepG2 [3]): 1.8 µM | Activity [4]: Active | Activity (HepG2 [5]): Active | Activity (HepG2 [6]): Active

C[C@H]1[C@H](OC(=O)CCC(=O)O)O[C@@H]2O[C@@]3(C)CC[C@H]4[C@H](C)CC[C@@H]1[C@@]24OO3 [ARTESUNATE]
IC50 [1]: 6.5 µM | IC50 (HepG2 [3]): 7.7 µM | Activity (HepG2 [5]): Active | Activity (HepG2 [6]): Active

C=CC1=C(C)/C2=C/C3=NC(=C(/CC(=O)NCCNC(=O)OC(C)(C)C)c4[nH]c(c(C)c4C(=O)O)/C=C4\N=C(CC1N2)C(C)=C4CC)/[C@@H](CCC(=O)O)[C@@H]3C (stereo not given in full)
Drug uptake [2]: Active | Activity (HepG2 [5]): Active
